This is an account of results in patent US20260258003A1, “SLACK-ACTIVATING COMPOUNDS AND THEIR MEDICAL USE” (Johann Wolfgang Goethe-Universität Frankfurt am Main, priority 2023, published 2026).

By AUC(0-inf) is commonly meant the area under the concentration-time curve extrapolated to infinity. Read a low AUC(0-inf) as low exposure. In general, AUC(0-t) refers to exposure summed from dosing to a finite time, without extrapolation to infinity. A high value points to more exposure. In general, CL/F refers to clearance divided by bioavailability, as obtained after extravascular dosing. One may read the Cmax as the maximum level reached in the sampled fluid or tissue. One may read the Tmax as the time at which the peak concentration occurs. The term Vd/F denotes the apparent distribution volume after extravascular dosing. As a reminder, the half-life is the time in which the quantity being followed falls by half.

Data set [1] in a line: In vivo pharmacokinetic study, plasma and brain levels by LC-MS. The following applies: male, C57BL/6, mouse, in vivo, ip, 1 mg/kg. Also on record: species or system mice. How it is done:
The compounds pharmacokinetic properties were examined in vivo by administering the compounds intraperitoneally (i.p.) at 1 mg/kg in mice, and determining plasma and brain levels over 8 h by LC-MS measurements.
The pharmacokinetic study was performed by Pharmacelsus (Saarbrücken, Germany). In total 27 male C57BL/6 mice (8 weeks old, 23-31 g body weight, purchased from Janvier Labs, France) were used. The animals were housed in a temperature-controlled room (20-24° C.) and maintained in a 12 h light/dark cycle. Food and water were available ad libitum. All experimental procedures were approved by and conducted in accordance with the regulations of the local Animal Welfare authorities (Landesamt für Gesundheit und Verbraucherschutz, Abteilung Lebensmittel-und Veterinärwesen, Saarbrücken).
The animals were divided into 3 groups (9 mice/group) and a cassette dosing was performed, in which the mice received a single dose of 1 mg/kg body weight of 3-4 compounds (dissolved in 0.9% NaCl containing 20% cyclodextrine) i.p. simultaneously. From each animal 2 blood samples were collected from the retrobulbar venous plexus under short isoflurane anesthesia (at 0.25 h and 0.5 h from 3 mice; at 1 h and 2 h from 3 mice; and at 4 h and 8 h from 3 mice). Li-heparin was used as anticoagulant. Plasma samples were obtained by centrifugation for 10 min at 3000× g and 4° C. Immediately after the last blood sample the animal was sacrificed by cervical dislocation and the brain was removed and frozen in liquid nitrogen. Plasma and brain samples were stored at −80° C. until LC-MS analysis.
For all other compounds, the HPLC system consisted of a U-HPLC pump (Accela) and an AS Open auto sampler (Thermo Fisher Scientific, USA), and mass spectrometry was performed on a Q Exactive (Orbitrap) accurate mass spectrometer equipped with a heated electrospray (H-ESI) interface (Thermo Fisher Scientific, USA) connected to a PC running the standard software Chromeleon 7.2. For all compounds, the HPLC pump flow rate was set to 600 μl/min and the compounds were separated on an analytical column with a suitable pre-column. The pharmacokinetic analysis was performed applying a non-compartment model using the Kinetica 5.0 software (Thermo Scientific, Waltham, USA). All given parameters were obtained by trapezoid area calculation.

A short description of data set [2]: BBB-specific parallel artificial membrane permeability assay (PAMPA-BBB). Format: in vitro ADME, porcine. Conditions: pH 7.4, 37° C.; for MR (membrane retention factor): 4 h; for Papp at 4 h, 100 μM: pig, Pe in cm/s, read-out: BBB permeability log Pe (converted). Here is the method:
BBB permeability was estimated using a BBB-specific parallel artificial membrane permeability assay (PAMPA-BBB). […] Five v/v % DMSO in PBS (Phosphate Buffer Saline; 0.01 M, pH=7.4) buffer solutions of each compound were prepared with the final nominal concentration of 100 μM. These solutions were treated with ultrasonic waves and then centrifuged in case the test compounds were insoluble at this concentration. Proceeding with saturated, homogenous solutions (CD(0)) is sufficient because log Pe only depends on relative concentrations. A BBB specific PAMPA system was used to determine the log Pe and membrane retention (MR). Each well of the top plate (MultiScreen […]10; Millipore; Billerica, US) was carefully coated with 5 μL of porcine polar brain lipid extract (PBLE; Avanti Polar Lipids, Birmingham, US) solution, then 150 μL of the CD(0) solution was put on the membrane. The bottom plate (MultiScreen MDCPN2M50; Millipore, Billerica, US) was filled with […] PBS. PBLE solution consisted of 1 mg PBLE per 10 μL n-dodecane and 30 μL n-hexane. The donor plate was put on the acceptor plate and covered with a wet paper tissue and a plate lid. The sandwich system was incubated at 37° C. for 4 h. The plates were shaken and incubated in a Thermo ScientificTM MaxQTM 4000 Benchtop Orbital Shaker (Gel, Belgium). After the incubation, PAMPA sandwich plates were separated and compound concentrations in donor (CD(t)) and acceptor (CA(t)) solutions were determined by UPLC-MS (Waters, Milford, US). The concentration of the donor solution at zero time point (CD(0)) was determined using the supernatant after centrifugation.
(PAMPA measures passive passage across an artificial lipid membrane.)

Turning to `CN1CCN(C2=Nc3ccccc3Oc3ccc(C(F)(F)F)cc32)CC1` [Compound 2, 11-(4-Methylpiperazin-1-yl)-2-(trifluoromethyl)dibenzo[b,f][1,4]oxazepine], in data set [1], the “% AUCextra” value came out at 19.3%, the AUC(0-inf) is 84 ng·h/mL, the AUC(0-t) is 67.8 ng·h/mL and the CL/F is 199 mL/min/kg. Moreover, in data set [1], the peak level (Cmax) was 25.6 ng/mL, the Cz is 3.3 ng/mL, the Tmax is 15 min and the Vd/F was 58.5 L/kg. Besides, in data set [1], the half-life is 204 min and the tz is recorded as 8 h. In addition, in data set [2], the “MR (membrane retention factor)” value was determined as 0.64 and the Papp at 4 h, 100 μM is 26.3 ×10⁻⁶ cm/s.
Turning to `CN1CCCN(C2=Nc3ccccc3Oc3ccc(C(F)(F)F)cc32)CC1` [Compound 3, 11-(4-Methyl-1,4-diazepan-1-yl)-2-(trifluoromethyl)dibenzo[b,f][1,4]oxazepine], in data set [1], the “% AUCextra” value is recorded as 5.0%, the AUC(0-inf) turned out to be 58.3 ng·h/mL, the AUC(0-t) came out at 55.4 ng·h/mL and the CL/F was 286 mL/min/kg. Moreover, in data set [1], the concentration peaked (Cmax) at 32.3 ng/mL, the Cz turned out to be 1.0 ng/mL, the time of peak concentration (Tmax) came to 30 min and the Vd/F was 50.1 L/kg. Moreover, in data set [1], the half-life was 120 min and the tz is 8 h. Also, in data set [2], the “MR (membrane retention factor)” value is 0.5 and the Papp at 4 h, 100 μM was 38 ×10⁻⁶ cm/s.
On to `CN1CCN(C2=Nc3cc(F)ccc3Oc3ccc(C(F)(F)F)cc32)CC1` [Compound 4, 8-Fluoro-11-(4-methylpiperazin-1-yl)-2-(trifluoromethyl)dibenzo[b,f][1,4]oxazepine], for which, in data set [1], the “% AUCextra” value came to 11.4%, the AUC(0-inf) came out at 122 ng·h/mL, the AUC(0-t) was determined as 108 ng·h/mL and the CL/F was 137 mL/min/kg. In data set [1], the Cmax came out at 40 ng/mL, the Cz was 4.1 ng/mL, the Tmax came out at 30 min and the Vd/F stood at 27.7 L/kg. In data set [1], this compound showed a half-life of 138 min and a tz of 8 h. In data set [2], the “MR (membrane retention factor)” value came out at 0.74 and the Papp at 4 h, 100 μM was 21.4 ×10⁻⁶ cm/s.
In the case of `OCCN1CCN(C2=Nc3ccccc3Oc3ccc(Cl)cc32)CC1` [Compound 5, 2-(4-(2-Chlorodibenzo[b,f][1,4]oxazepin-11-yl)piperazin-1-yl) ethan-1-ol], in data set [1], the “% AUCextra” value was 1.3%, the AUC(0-inf) was determined as 50.2 ng·h/mL, the AUC(0-t) turned out to be 49.6 ng·h/mL and the CL/F was 332 mL/min/kg. Besides, in data set [1], the Cmax was 44 ng/mL, the Cz was found to be 0.4 ng/mL, the Tmax is 15 min and the Vd/F stood at 33.1 L/kg. Besides, in data set [1], the half-life is 72 min and the tz amounted to 8 h. For the same compound, in data set [2], the “MR (membrane retention factor)” value is recorded as 0.03 and the Papp at 4 h, 100 μM was 39.8 ×10⁻⁶ cm/s.
Consider `OCCOCCN1CCN(C2=Nc3ccccc3Sc3ccc(Cl)cc32)CC1` [Compound 7, 2-(2-(4-(2-Chlorodibenzo[b,f][1,4]thiazepin-11-yl)piperazin-1-yl)ethoxy) ethan-1-ol], for which, in data set [1], the “% AUCextra” value was 0.9%, the AUC(0-inf) turned out to be 71.9 ng·h/mL, the AUC(0-t) is 71.2 ng·h/mL and the CL/F is 232 mL/min/kg. Moreover, in data set [1], the concentration peaked (Cmax) at 87.2 ng/mL, the Cz turned out to be 0.3 ng/mL, the time of peak concentration (Tmax) worked out at 15 min and the Vd/F came out at 31.4 L/kg. In data set [1], this compound had a half-life of 96 min and a tz of 8 h. Besides, in data set [2], the “MR (membrane retention factor)” value is 0.19 and the Papp at 4 h, 100 μM is 53.7 ×10⁻⁶ cm/s.
Regarding `O=C(O)COCCN1CCN(C2=Nc3ccccc3Oc3ccc(C(F)(F)F)cc32)CC1` [Compound 8, 2-(2-(4-(2-(Trifluoromethyl)dibenzo[b,f][1,4]oxazepin-11-yl)piperazin-1-yl)ethoxy) acetic acid], in data set [1], the “% AUCextra” value came out at 20.7%, the AUC(0-inf) was 851 ng·h/mL, the AUC(0-t) came out at 675 ng·h/mL and the CL/F is 19.6 mL/min/kg. Further, in data set [1], the Cmax came out at 316 ng/mL, the Cz was determined as 31.4 ng/mL, the Tmax was found to be 15 min and the Vd/F was 6.58 L/kg. In addition, in data set [1], the half-life is 234 min and the tz is reported as 8 h. For the same compound, the Papp at 4 h, 100 μM in data set [2] is 26.3 ×10⁻⁶ cm/s.
For `O=C(O)COCCN1CCCN(C2=Nc3ccccc3Oc3ccc(C(F)(F)F)cc32)CC1` [Compound 9, 2-(2-(4-(2-(Trifluoromethyl)dibenzo[b,f][1,4]oxazepin-11-yl)-1,4-diazepan-1-yl)ethoxy) acetic acid], in data set [1], the “% AUCextra” value turned out to be 0.6%, the AUC(0-inf) worked out at 123 ng·h/mL, the AUC(0-t) was determined as 123 ng·h/mL and the CL/F was 135 mL/min/kg. Besides, in data set [1], the Cmax worked out at 242 ng/mL, the Cz turned out to be 0.3 ng/mL, the time of peak concentration (Tmax) turned out to be 15 min and the Vd/F was found to be 21.1 L/kg. In data set [1], the half-life is 108 min and the tz amounted to 8 h. Further, in data set [2], the “MR (membrane retention factor)” value is −0.10 and the Papp at 4 h, 100 μM is 35.5 ×10⁻⁶ cm/s.
